Laboratory results reported in patent US20130109682A1, “CYCLIC ETHER COMPOUNDS USEFUL AS KINASE INHIBITORS” (NOVARTIS AG, priority 2010, published 2013).

Experiments:
[1] = target: PIM1 (Homo sapiens, UniProt P11309); experiment: KinaseGlo Pim1 ATP depletion assay; assay type: biochemical
In short: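 IC50 is derived from residual ATP measured by KinaseGlo Plus luminescence once about half the ATP was consumed. Final conditions were 20 μM ATP, 40 μM BAD peptide and 2.5 nM kinase in HEPES pH 7.5 buffer with MgCl2, DTT and BSA, plus 2.5% DMSO. Compound and enzyme were premixed 15 min before ATP addition.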

[2] = target: PIM2 (Homo sapiens, UniProt Q9P1W9); experiment: KinaseGlo Pim2 ATP depletion assay; assay type: biochemical
In short: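 Compound sat 15 min with enzyme and BAD peptide before ATP was added; final levels 5 nM PIM2, 10 μM peptide, 4 μM ATP, 2.5% DMSO, pH 7.5 HEPES buffer with MgCl2, DTT, BSA. Stopped near 50% ATP consumption; remaining ATP measured by luciferase luminescence.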

[3] = target: PIM3 (Homo sapiens, UniProt Q86V86); experiment: KinaseGlo Pim3 ATP depletion assay; assay type: biochemical
In short: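 Residual ATP was detected by luciferase luminescence once about half had been consumed. The reaction contained 5 nM enzyme, 100 μM BAD peptide (RSRHSSYPAGT) and 40 μM ATP in 50 mM HEPES pH 7.5, 5 mM MgCl2, 1 mM DTT and 0.05% BSA with 2.5% DMSO. Compound and enzyme/peptide were premixed 15 min before ATP.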

[4] = target: GSK3β (Homo sapiens, UniProt P49841); experiment: GSK3β ATP depletion assay; assay type: biochemical; conditions: read-out: GSK3b IC50
In short: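 Kinase activity is read as ATP consumption: luciferase luminescence reports the ATP remaining once roughly half of the 2 μM ATP is used. Reaction mix: 5 nM GSK3β, 10 μM b-CREB peptide, 50 mM Tris pH 7.5, 15 mM MgCl2, 1 mM DTT, 0.1% BSA, 2.5% DMSO. Enzyme and peptide are preincubated 15 min before ATP is added.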

[5] = tested on: KMS11 (human myeloma cell line); experiment: Cell proliferation assay (CellTiter-Glo), KMS11; assay type: cell-based; conditions: Homo sapiens, KMS-11; KMS11-Luc cells
In short: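 EC50 derived from CellTiter-Glo luminescence after 3-day exposure at 37° C. Compound was diluted to 2× in medium and added to an equal volume of cells. KMS11 myeloma cells were plated on assay day at 2000/well in IMDM with 10% FBS and sodium pyruvate.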

Sequence of PIM1 (P11309 whole entry): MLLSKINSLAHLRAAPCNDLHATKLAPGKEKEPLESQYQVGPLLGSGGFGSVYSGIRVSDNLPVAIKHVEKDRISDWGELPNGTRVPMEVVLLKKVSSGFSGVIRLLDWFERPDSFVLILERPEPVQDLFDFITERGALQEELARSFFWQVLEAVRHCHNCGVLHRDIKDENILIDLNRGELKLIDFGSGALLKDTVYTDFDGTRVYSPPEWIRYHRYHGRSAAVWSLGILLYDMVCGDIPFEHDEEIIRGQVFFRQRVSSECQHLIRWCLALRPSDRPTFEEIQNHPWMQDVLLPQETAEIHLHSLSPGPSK
Sequence of GSK3β (P49841 whole entry, species assumed): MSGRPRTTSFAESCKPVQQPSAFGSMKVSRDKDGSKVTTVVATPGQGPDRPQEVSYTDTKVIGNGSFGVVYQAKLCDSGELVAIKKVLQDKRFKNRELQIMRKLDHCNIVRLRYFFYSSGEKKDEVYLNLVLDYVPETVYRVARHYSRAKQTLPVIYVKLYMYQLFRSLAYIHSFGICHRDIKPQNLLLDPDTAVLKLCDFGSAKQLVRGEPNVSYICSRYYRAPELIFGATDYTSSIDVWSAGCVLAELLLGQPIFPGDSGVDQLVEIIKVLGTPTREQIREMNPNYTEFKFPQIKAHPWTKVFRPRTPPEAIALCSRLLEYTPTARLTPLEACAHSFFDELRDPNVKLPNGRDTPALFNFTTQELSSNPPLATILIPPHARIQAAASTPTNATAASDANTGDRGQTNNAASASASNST
Sequence of PIM2 (Q9P1W9 whole entry): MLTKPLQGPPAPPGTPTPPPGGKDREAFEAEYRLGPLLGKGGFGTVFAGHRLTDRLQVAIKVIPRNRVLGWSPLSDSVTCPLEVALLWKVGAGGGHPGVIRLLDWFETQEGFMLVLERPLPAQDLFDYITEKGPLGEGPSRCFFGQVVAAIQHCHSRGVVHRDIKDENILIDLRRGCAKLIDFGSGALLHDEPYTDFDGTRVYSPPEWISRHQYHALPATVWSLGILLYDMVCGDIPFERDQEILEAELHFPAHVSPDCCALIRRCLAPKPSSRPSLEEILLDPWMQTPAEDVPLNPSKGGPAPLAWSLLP

IC50 [1] [nM]	IC50 [2] [nM]	IC50 [3] [nM]	IC50 [4] [nM]	EC50 [5] [nM]	SMILES
0.5	2.8	2	46.2	5310	O=C(Nc1cnccc1[C@H]1C[C@@H](O)[C@@]2(O)CCC[C@H]2O1)c1ccc(F)c(-c2c(F)cccc2F)n1 [Example 204, 6-(2,6-difluorophenyl)-N-(4-((2R,4R,4aS,7aR)-4,4a-dihydroxyoctahydrocyclopenta[b]pyran-2-yl)pyridin-3-yl)-5-fluoropicolinamide]
8	2480	40	2730	9500	O=C(Nc1cnccc1C1OCCCO1)c1csc(-c2c(F)cccc2F)n1 [Example 117, N-(4-(1,3-dioxan-2-yl)pyridin-3-yl)-2-(2,6-difluorophenyl)thiazole-4-carboxamide]
10	2320	165	104	> 10000	C[C@@H]1C[C@H](O)C[C@H](c2ccncc2NC(=O)c2csc(-c3c(F)cccc3F)n2)O1 (stereo in doubt) [Example 125, 2-(2,6-difluorophenyl)-N-(4-((2R,4S,6R)-4-hydroxy-6-methyltetrahydro-2H-pyran-2-yl)pyridin-3-yl)thiazole-4-carboxamide]
9	67.7	35.9	2680	> 10000	CC[C@@H]1O[C@H](c2ccncc2NC(=O)c2nc(-c3c(F)cccc3F)c(F)cc2N)C[C@H](O)[C@@]1(C)O [Example 165, 3-amino-6-(2,6-difluorophenyl)-N-(4-((2S,4S,5R,6S)-6-ethyl-4,5-dihydroxy-5-methyltetrahydro-2H-pyran-2-yl)pyridin-3-yl)-5-fluoropicolinamide]
57.1	156	53.3	207	> 10000	N#C[C@H]1O[C@@H](c2ccncc2NC(=O)c2nc(-c3nccs3)ccc2N)C[C@@H](O)[C@@H]1O [Example 150, 3-amino-N-(4-((2R,4R,5S,6R)-6-cyano-4,5-dihydroxytetrahydro-2H-pyran-2-yl)pyridin-3-yl)-6-(thiazol-2-yl)picolinamide]
2	3	4	66	4160	Nc1cnc(-c2c(F)cccc2F)nc1C(=O)Nc1cnccc1[C@H]1C[C@@H](O)[C@H](O)[C@@H](CCl)O1 [Example 17, 5-amino-N-(4-((2R,4R,5S,6S)-6-(chloromethyl)-4,5-dihydroxytetrahydro-2H-pyran-2-yl)pyridin-3-yl)-2-(2,6-difluorophenyl)pyrimidine-4-carboxamide]
0.8	1.9	1.6	2070	2760	CC[C@H]1O[C@@H](c2ccncc2NC(=O)c2ccc(F)c(-c3c(F)cccc3F)n2)C[C@@H](O)[C@]1(C)O [Example 164, 6-(2,6-difluorophenyl)-N-(4-((2R,4R,5S,6R)-6-ethyl-4,5-dihydroxy-5-methyltetrahydro-2H-pyran-2-yl)pyridin-3-yl)-5-fluoropicolinamide]
1	1	1	88	1000	Nc1cc(F)c(-c2c(F)cccc2F)nc1C(=O)Nc1cnccc1[C@H]1C[C@@H](O)[C@H](O)[C@@H](CCl)O1 [Example 35, 3-amino-N-(4-((2R,4R,5S,6S)-6-(chloromethyl)-4,5-dihydroxytetrahydro-2H-pyran-2-yl)pyridin-3-yl)-6-(2,6-difluorophenyl)-5-fluoropicolinamide]
4.9	154	25	453	> 10000	C=C1[C@H](O)C[C@H](c2ccncc2NC(=O)c2ccc(F)c(-c3c(F)cccc3F)n2)OC12CC2 [Example 9, 6-(2,6-difluorophenyl)-5-fluoro-N-(4-((5R,7R)-7-hydroxy-8-methylene-4-oxaspiro[2.5]octan-5-yl)pyridin-3-yl)picolinamide]
1	12	5	583	8110	N#C[C@H]1O[C@@H](c2ccncc2NC(=O)c2ccc(F)c(-c3c(F)cccc3F)n2)C[C@@H](O)[C@@H]1O [Example 13, N-(4-((2R,4R,5S,6R)-6-cyano-4,5-dihydroxytetrahydro-2H-pyran-2-yl)pyridin-3-yl)-6-(2,6-difluorophenyl)-5-fluoropicolinamide]
18	54	19	2250	> 10000	CC[C@H]1O[C@@H](c2ccncc2NC(=O)c2nc(-c3nccs3)ccc2N)C[C@@H](O)[C@@H]1O [Example 140, 3-amino-N-(4-((2R,4R,5S,6R)-6-ethyl-4,5-dihydroxytetrahydro-2H-pyran-2-yl)pyridin-3-yl)-6-(thiazol-2-yl)picolinamide]
166	1640	260	67.4	> 10000	CC[C@]1(O)[C@H](O)C[C@H](c2ccncc2NC(=O)c2nc(-c3ccnnc3)ccc2N)O[C@@H]1C [Example 160, 3-amino-N-(4-((2R,4R,5S,6R)-5-ethyl-4,5-dihydroxy-6-methyltetrahydro-2H-pyran-2-yl)pyridin-3-yl)-6-(pyridazin-4-yl)picolinamide]
3	5	5	191	5710	CC[C@H]1O[C@@H](c2ccncc2NC(=O)c2nc(-c3c(F)cccc3F)ncc2N)C[C@@H](O)[C@@H]1O [Example 18, 5-amino-2-(2,6-difluorophenyl)-N-(4-((2R,4R,5S,6R)-6-ethyl-4,5-dihydroxytetrahydro-2H-pyran-2-yl)pyridin-3-yl)pyrimidine-4-carboxamide]
1.1	4	3.1	268	7240	N#C[C@H]1OC(c2ccncc2NC(=O)c2nc(-c3c(F)cccc3F)c(F)cc2N)=C[C@@H](O)[C@@H]1O [Example 4, 3-amino-N-(4-((2R,3S,4R)-2-cyano-3,4-dihydroxy-3,4-dihydro-2H-pyran-6-yl)pyridin-3-yl)-6-(2,6-difluorophenyl)-5-fluoropicolinamide]
4	300	22	984	> 10000	CC1C(c2ccncc2NC(=O)c2ccc(F)c(-c3c(F)cccc3F)n2)OC(C)[C@@H](O)C1O (stereo in doubt) [Example 67, 6-(2,6-difluorophenyl)-N-(4-((2R,3S,4R,5S,6R)-4,5-dihydroxy-3,6-dimethyltetrahydro-2H-pyran-2-yl)pyridin-3-yl)-5-fluoropicolinamide]
1	2	2	660	1350	C=C[C@H]1OC(c2ccncc2NC(=O)c2nc(-c3c(F)cccc3F)c(F)cc2N)=C[C@@H](O)[C@@H]1O [Example 25, 3-amino-6-(2,6-difluorophenyl)-N-(4-((2R,3S,4R)-3,4-dihydroxy-2-vinyl-3,4-dihydro-2H-pyran-6-yl)pyridin-3-yl)-5-fluoropicolinamide]
6	162	14	757	> 10000	O=C(Nc1cnccc1[C@H]1C[C@@H](O)CC2(CC2)O1)c1ccc(F)c(-c2c(F)cccc2F)n1 [Example 59, 6-(2,6-difluorophenyl)-5-fluoro-N-(4-((5R,7R)-7-hydroxy-4-oxaspiro[2.5]octan-5-yl)pyridin-3-yl)picolinamide]
1	5	2	450	> 10000	N#CC[C@H]1O[C@@H](c2ccncc2NC(=O)c2nc(-c3c(F)cccc3F)c(F)cc2N)C[C@@H](O)[C@@H]1O [Example 139, 3-amino-N-(4-((2R,4R,5S,6R)-6-(cyanomethyl)-4,5-dihydroxytetrahydro-2H-pyran-2-yl)pyridin-3-yl)-6-(2,6-difluorophenyl)-5-fluoropicolinamide]
